Data from patent US20210253651A1, “METHOD FOR PRODUCING ORGANIC COMPOUND-ENCAPSULATING FERRITIN” (Ajinomoto Co., Inc., priority 2018, published 2021).
Where two headings read alike, the source gives them in different places.

Tests used:
FTH ferritin [1] = target: T1, FTH ferritin (Homo sapiens, UniProt P02794); test: one-step process incorporation of small molecule agents into FTH ferritin; type: physicochemical; settings: for Number of agent incorporated / Incorporation efficiency (wt %): 60 min; for Optimal pH in reaction: pH of buffer giving the largest amount of incorporation within ferritin
T1 construct: made in house; host or cells: Escherichia coli BL21 (DE3), plasmid pET20-FTH
T1 sequence (P02794 whole entry): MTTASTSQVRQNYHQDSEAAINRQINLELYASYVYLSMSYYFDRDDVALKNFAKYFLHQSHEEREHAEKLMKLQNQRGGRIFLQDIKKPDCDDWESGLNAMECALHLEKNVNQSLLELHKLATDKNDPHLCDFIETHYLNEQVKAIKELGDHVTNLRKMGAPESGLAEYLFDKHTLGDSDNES
Description: All of the reactions were performed in 0.1 mL volume. […] The absorbances were measured using spectrophotometer (DU-800, Beckman Coulter Inc.) for these solutions, and the concentration of contained protein was determined using the protein assay CBB solution (Nacalai Tesque, Inc.) as well as bovine albumin as a standard. Absorbances at 280 nm and 480 nm were measured for Rhodamine B and Congo Red. […] Then, after the absorbances were calibrated based on the absorbances that were derived from the proteins and presumed by the amount of contained protein quantified using the protein assay CBB solution, the concentrations of small molecule agents were determined based on the calibration curves obtained by the absorbances of the molecules. […] As a result, the one-step process enabled incorporating also the small molecule agents with different physical properties such as molecular weight and pKa simply and easily.

[2] = cited from earlier work
[3] = cited from earlier work; remark: listed apart in the source
[4] = pKa of the organic compound; type: physicochemical; settings: average of plural pKa values
From the text: The pKa of the organic compound can be determined by a neutralization titration method (Kagaku Binran Kiso-hen I and II (Handbook of Chemistry, basic I and II) (Ver. 4) edited by The Chemical Society of Japan, Maruzen Publishing, 1993). […] When the organic compound has a single pKa value, the value is employed as the pKa of the organic compound.

FTH ferritin [5] = target: T1, FTH ferritin; test: one-step process incorporation of uranine into FTH ferritin; type: physicochemical
Description: All reactions were carried out in 1 mL volume. After the standing and centrifuging (at 15,000 rpm for one minute), the supernatant was injected into the desalting column PD-10 (Sephadex G-25 filled product, GE Healthcare Inc.) equilibrated with 10 mM Tris-HCl buffer (pH 8) to separate the protein from a reagent that was not encapsulated, for obtaining 3.5 mL of sample solution. The absorbance at 430 nm was measured using spectrophotometer (DU-800, Beckman Coulter Inc.) for the resulting solution in order to determine the concentration of uranine. The concentration of contained protein was determined using the protein assay CBB solution (Nacalai Tesque, Inc.) as well as bovine albumin as a standard.

FTH ferritin [6] = target: T1, FTH ferritin; test: disassembly-reassembly process incorporation of uranine into FTH ferritin; type: physicochemical
Description: As a control, uranine was incorporated into ferritin in the disassembly-reassembly process. […] Then, 10 μL of 1 M Tris-HCl buffer (pH 9.0) was added for neutralization, and the resulting solution was left to stand for 15 minutes at room temperature. After the standing, 0.5 mL of water was added. After the resulting solution was centrifuged (at 15,000 rpm for one minute), the supernatant was injected into the desalting column PD-10 (Sephadex G-25 filled product, GE Healthcare Inc.) equilibrated with 10 mM Tris-HCl buffer (pH 8) to separate the protein from a reagent that was not encapsulated. Whole amount (3.5 mL) of the resulting solution was concentrated to 0.1 mL by centrifugal ultrafiltration using Vivaspin 20-100K (GE Healthcare Inc.).

Cc1cc2nc3c(=O)[nH]c(=O)nc-3n(C[C@H](O)[C@H](O)[C@H](O)CO)c2cc1C [Riboflavin]
Number of agent incorporated (FTH ferritin [1]; pH 4, 40° C.): 6.4 | Number of agent incorporated (FTH ferritin [1]; pH 6, 40° C.): 6.5 | Number of agent incorporated (FTH ferritin [1]; pH 8, 40° C.): 6.4 | Number of agent incorporated (FTH ferritin [1]; pH 10, 40° C.): 7.7 | Optimal pH in reaction (FTH ferritin [1]): 10 | pKa ([2]; single or first pKa value): 10.2

Rhodamine B
Incorporation efficiency (wt %) (FTH ferritin [1]; pH 4, 60° C.): 0.4 wt % | Number of agent incorporated (FTH ferritin [1]; pH 4, 60° C.): 4.3 | Incorporation efficiency (wt %) (FTH ferritin [1]; pH 5, 60° C.): 1.5 wt % | Number of agent incorporated (FTH ferritin [1]; pH 5, 60° C.): 16.7 | Incorporation efficiency (wt %) (FTH ferritin [1]; pH 6, 60° C.): 0.3 wt % | Number of agent incorporated (FTH ferritin [1]; pH 6, 60° C.): 3.5 | Incorporation efficiency (wt %) (FTH ferritin [1]; pH 7, 60° C.): 0.2 wt % | Number of agent incorporated (FTH ferritin [1]; pH 7, 60° C.): 2.3 | Incorporation efficiency (wt %) (FTH ferritin [1]; pH 8, 20° C.): 1.0 wt % | Number of agent incorporated (FTH ferritin [1]; pH 8, 20° C.): 11.1 | Incorporation efficiency (wt %) (FTH ferritin [1]; pH 8, 60° C.): 0.2 wt % | Number of agent incorporated (FTH ferritin [1]; pH 8, 60° C.): 1.8 | Incorporation efficiency (wt %) (FTH ferritin [1]; pH 9, 30° C.): 0.7 wt % | Number of agent incorporated (FTH ferritin [1]; pH 9, 30° C.): 7.6 | Incorporation efficiency (wt %) (FTH ferritin [1]; pH 9, 40° C.): 0.4 wt % | Number of agent incorporated (FTH ferritin [1]; pH 9, 40° C.): 3.9 | Incorporation efficiency (wt %) (FTH ferritin [1]; pH 9, 50° C.): 0.2 wt % | Number of agent incorporated (FTH ferritin [1]; pH 9, 50° C.): 2.6 | Incorporation efficiency (wt %) (FTH ferritin [1]; pH 9, 60° C.): 0.2 wt % | Number of agent incorporated (FTH ferritin [1]; pH 9, 60° C.): 2.5 | Incorporation efficiency (wt %) (FTH ferritin [1]; pH 10, 40° C.): 0.3 wt % | Number of agent incorporated (FTH ferritin [1]; pH 10, 40° C.): 3.2 | Incorporation efficiency (wt %) (FTH ferritin [1]; pH 10, 50° C.): 0.2 wt % | Number of agent incorporated (FTH ferritin [1]; pH 10, 50° C.): 2.6 | Incorporation efficiency (wt %) (FTH ferritin [1]; pH 10, 60° C.): 0.6 wt % | Number of agent incorporated (FTH ferritin [1]; pH 10, 60° C.): 6.6 | Optimal pH in reaction (FTH ferritin [1]): 5 | logP [3]: 1.78 | pKa ([2]; single or first pKa value): 3.1

Nc1cc(N2CCCCC2)nc(N)[n+]1[O-] [Minoxidil]
Incorporation efficiency (wt %) (FTH ferritin [1]; pH 4, 40° C.): 0.3 wt % | Number of agent incorporated (FTH ferritin [1]; pH 4, 40° C.): 8.3 | Incorporation efficiency (wt %) (FTH ferritin [1]; pH 6, 20° C.): 2.6 wt % | Number of agent incorporated (FTH ferritin [1]; pH 6, 20° C.): 65.6 | Incorporation efficiency (wt %) (FTH ferritin [1]; pH 6, 40° C.): 0.8 wt % | Number of agent incorporated (FTH ferritin [1]; pH 6, 40° C.): 20.0 | Incorporation efficiency (wt %) (FTH ferritin [1]; pH 6, 60° C.): 0.5 wt % | Number of agent incorporated (FTH ferritin [1]; pH 6, 60° C.): 12.0 | Incorporation efficiency (wt %) (FTH ferritin [1]; pH 8, 40° C.): 0.5 wt % | Number of agent incorporated (FTH ferritin [1]; pH 8, 40° C.): 12.0 | Incorporation efficiency (wt %) (FTH ferritin [1]; pH 10, 40° C.): 0.2 wt % | Number of agent incorporated (FTH ferritin [1]; pH 10, 40° C.): 4.3 | Optimal pH in reaction (FTH ferritin [1]): 6 | logP [3]: 1.24 | pKa ([2]; single or first pKa value): 4.61

Nc1c(/N=N/c2ccc(-c3ccc(/N=N/c4cc(S(=O)(=O)[O-])c5ccccc5c4N)cc3)cc2)cc(S(=O)(=O)[O-])c2ccccc12.[Na+].[Na+] [Congo Red]
Incorporation efficiency (wt %) (FTH ferritin [1]; pH 3, 25° C.): 0.0 wt % | Number of agent incorporated (FTH ferritin [1]; pH 3, 25° C.): 0.2 | Incorporation efficiency (wt %) (FTH ferritin [1]; pH 4, 25° C.): 0.5 wt % | Number of agent incorporated (FTH ferritin [1]; pH 4, 25° C.): 3.7 | Incorporation efficiency (wt %) (FTH ferritin [1]; pH 5, 25° C.): 0.1 wt % | Number of agent incorporated (FTH ferritin [1]; pH 5, 25° C.): 1.0 | Incorporation efficiency (wt %) (FTH ferritin [1]; pH 6, 10° C.): 0.2 wt % | Number of agent incorporated (FTH ferritin [1]; pH 6, 10° C.): 1.4 | Incorporation efficiency (wt %) (FTH ferritin [1]; pH 6, 20° C.): 0.2 wt % | Number of agent incorporated (FTH ferritin [1]; pH 6, 20° C.): 1.4 | Incorporation efficiency (wt %) (FTH ferritin [1]; pH 6, 25° C.): 0.1 wt % | Number of agent incorporated (FTH ferritin [1]; pH 6, 25° C.): 0.9 | Incorporation efficiency (wt %) (FTH ferritin [1]; pH 6, 30° C.): 0.2 wt % | Number of agent incorporated (FTH ferritin [1]; pH 6, 30° C.): 1.6 | Incorporation efficiency (wt %) (FTH ferritin [1]; pH 6, 40° C.): 0.2 wt % | Number of agent incorporated (FTH ferritin [1]; pH 6, 40° C.): 1.7 | Incorporation efficiency (wt %) (FTH ferritin [1]; pH 6, 50° C.): 0.2 wt % | Number of agent incorporated (FTH ferritin [1]; pH 6, 50° C.): 1.8 | Incorporation efficiency (wt %) (FTH ferritin [1]; pH 6, 60° C.): 0.4 wt % | Number of agent incorporated (FTH ferritin [1]; pH 6, 60° C.): 2.8 | Incorporation efficiency (wt %) (FTH ferritin [1]; pH 7, 25° C.): 0.1 wt % | Number of agent incorporated (FTH ferritin [1]; pH 7, 25° C.): 0.7 | Incorporation efficiency (wt %) (FTH ferritin [1]; pH 8, 25° C.): 0.1 wt % | Number of agent incorporated (FTH ferritin [1]; pH 8, 25° C.): 0.8 | Incorporation efficiency (wt %) (FTH ferritin [1]; pH 9, 25° C.): 0.1 wt % | Number of agent incorporated (FTH ferritin [1]; pH 9, 25° C.): 0.8 | Optimal pH in reaction (FTH ferritin [1]): 4 | logP [3]: −1.88 | pKa ([2]; single or first pKa value): 4.1

O=C([O-])c1ccccc1-c1c2ccc(=O)cc-2oc2cc([O-])ccc12.[Na+].[Na+] [Uranine]
pKa (average) [4]: 4.4 | amount of encapsulated uranine, one-step vs disassembly-reassembly process (FTH ferritin [5]): 2.7 fold | Uranine (FTH ferritin [5]; 30° C., pH 3): 71.0 µM | Uranine/FTH ferritin (FTH ferritin [5]; 30° C., pH 3): 99.2 | Uranine (FTH ferritin [5]; 30° C., pH 5): 135.6 µM | Uranine/FTH ferritin (FTH ferritin [5]; 30° C., pH 5): 183.6 | Uranine (FTH ferritin [5]; 30° C., pH 7): 68.5 µM | Uranine/FTH ferritin (FTH ferritin [5]; 30° C., pH 7): 90.0 | Uranine (FTH ferritin [5]; 60° C., pH 3): 198.9 µM | Uranine/FTH ferritin (FTH ferritin [5]; 60° C., pH 3): 267.5 | Uranine (FTH ferritin [5]; 60° C., pH 5): 201.4 µM | Uranine/FTH ferritin (FTH ferritin [5]; 60° C., pH 5): 265.3 | Uranine (FTH ferritin [5]; 60° C., pH 7): 93.4 µM | Uranine/FTH ferritin (FTH ferritin [5]; 60° C., pH 7): 137.7 | optimum value of the reaction pH presumed from average pKa (FTH ferritin [5]; presumed from pH=2.6+0.6 pKa relation): ~5 | Uranine (FTH ferritin [6]; uranine in reaction 1 mM): 864.5 µM | Uranine/FTH ferritin (FTH ferritin [6]; uranine in reaction 1 mM): 36.7 | Uranine (FTH ferritin [6]; uranine in reaction 5 mM): 1186.3 µM | Uranine/FTH ferritin (FTH ferritin [6]; uranine in reaction 5 mM): 47.2 | Uranine (FTH ferritin [6]; uranine in reaction 10 mM): 1382.1 µM | Uranine/FTH ferritin (FTH ferritin [6]; uranine in reaction 10 mM): 52.6 | Uranine (FTH ferritin [6]; uranine in reaction 50 mM): 1764.2 µM | Uranine/FTH ferritin (FTH ferritin [6]; uranine in reaction 50 mM): 72.5 | Uranine (FTH ferritin [6]; uranine in reaction 100 mM): 2106.1 µM | Uranine/FTH ferritin (FTH ferritin [6]; uranine in reaction 100 mM): 100.2 | Uranine (FTH ferritin [6]; uranine in reaction 300 mM): 2405.1 µM | Uranine/FTH ferritin (FTH ferritin [6]; uranine in reaction 300 mM): 90.8 | pKa ([2]; second pKa value): 4.4 | pKa ([2]; single or first pKa value): 2.2 | pKa ([2]; third printed pKa value): 6.7
